Results published in patent publication US20110201084A1, “ENZYMATIC HYDROLYSIS OF CELLULOSIC BIOMASS THROUGH ENHANCED REMOVAL OF OLIGOMERS” (THE REGENTS OF THE UNIVERSITY OF CALIFORNIA, priority 2008, published 2011).
Each block holds one compound with its values, some of them ahead of it.

Assays:
cellulase [1] = test: Effect of xylose oligomer chain length on Avicel glucan initial hydrolysis rate; type: biochemical
Excerpt: FIG. 9 depicts the effect of xylose oligomer chain length on Avicel glucan initial hydrolysis rate at a cellulase loading of thirty FPU/g glucan and CBU to FPU activity ration of two.
Furthermore, these xylooligomers have been found in the liquor from pretreatment prior to enzymatic hydrolysis, with the amounts depending upon the type of pretreatment, substrate, and substrate loading. Furthermore, such xylooligomers can slow glucose and xylose release. […] In accordance with an aspect of the disclosure, 12.5 mg/ml (eighty mM xylose equivalent) of xylose, 6.6 mg/ml (forty-six mM xylose equivalent) and 16.6 mg/ml (one-hundred seventeen mM xylose equivalent) of xylobiose, and 6.6 mg/ml (forty-eight mM xylose equivalent) of xylotriose were added to two ml centrifuge tubes containing thirty mg of commercial grade cellulose in 1.5 ml of liquid at a cellulase loading of thirty FPU/g glucan, and initial hydrolysis rates were measured. Xylose alone at this concentration inhibited yields by about ten percent, but about half as much xylobiose, forty-six mM of xylose equivalent, reduced glucose release by eighteen percent. Furthermore, glucose release dropped by about thirty-two percent at a higher xylobiose loading of one-hundred seventeen mM of xylose equivalent. Adding almost half of the xylose concentration and about the same as the lower concentration of xylobiose, xylotriose (forty-eight mM xylose equivalent) reduced glucose release even more, by about twenty-four percent.

cellulase [2] = test: Hydrolysis of Avicel cellulose with added birch wood xylan, xylose and β-xylosidase; type: biochemical; conditions: xylose equivalent to 1% (w/v) xylan mixed with Avicel; 7.5 FPU/g glucan; 4 h rate
Protocol: Avicel+xylan−1% (w/v) each, Avicel+xylose−xylose equivalent to 1% (w/v) xylan. b-xylosidase loading was 28 mg/g glucan. Error bars represent the standard deviation.
Hydrolysis of one percent (w/w) commercial grade cellulose with an equal mass of birch wood xylan [approximately eighty-six percent xylan] was performed in triplicate at a cellulase plus β-glucosidase loading of 16.1 mg/glucan. Hydrolysis was also performed at a similar cellulase loading but supplemented with β-xylosidase at a loading of 14 mg/g glucan. To evaluate the effect of xylose alone on cellulose hydrolysis, cellulose containing an equivalent amount of xylose (1.053*amount of xylan) was enzymatically hydrolyzed in parallel. Controlled experiments for cellulose hydrolysis without xylan, cellulose with β-xylosidase only, and a substrate blank containing cellulose plus xylan were run in parallel. Samples were collected four, twenty-four, forty-eight, and seventy-two hours after initiation of hydrolysis and analyzed for sugars. Liquids produced by seventy-two hours of hydrolysis of samples containing xylan were post hydrolyzed to determine the amount of xylooligomers as described herein.
Referring now to FIG. 5, an aspect of the disclosure is the addition of β-xylosidase to effect hydrolysis of cellulose. […]
The concentration of xylose in the hydrolyzate was measured to be 5.5 g/l. […]

- reduction of glucose release (Avicel initial hydrolysis) (cellulase [1]; xylotriose 6.6 mg/ml (forty-eight mM xylose equivalent), thirty FPU/g glucan): about twenty-four
Structure (SMILES): OC1OC[C@@H](O[C@@H]2OC[C@@H](O[C@@H]3OC[C@@H](O)[C@H](O)[C@H]3O)[C@H](O)[C@H]2O)[C@H](O)[C@H]1O (some centres unmarked) [xylotriose]

- reduction of glucose release (Avicel initial hydrolysis) (cellulase [1]; xylose 12.5 mg/ml (eighty mM xylose equivalent), cellulase thirty FPU/g glucan): about ten
- inhibition of enzyme action (cellulase [2]): 12%
Structure (SMILES): O=C[C@H](O)[C@@H](O)[C@H](O)CO [xylose]

- reduction of glucose release (Avicel initial hydrolysis) (cellulase [1]; xylobiose 6.6 mg/ml (forty-six mM xylose equivalent), thirty FPU/g glucan): eighteen
- reduction of glucose release (Avicel initial hydrolysis) (cellulase [1]; xylobiose 16.6 mg/ml (one-hundred seventeen mM xylose equivalent), thirty FPU/g glucan): about thirty-two
Structure (SMILES): OC1OC[C@@H](O[C@@H]2OC[C@@H](O)[C@H](O)[C@H]2O)[C@H](O)[C@H]1O (some centres unmarked) [xylobiose]
